Laboratory results published in patent US4478849A, “Secondary amines, their preparation and use in pharmaceutical compositions” (Beecham Group Limited, priority 1978, dated 1984).

Key:
genetically obese mice = assay: carcass lipid of genetically obese mice after daily oral dosing for 28 days (anti-obesity); assay type: in vivo, mouse (genetically obese); conditions: for anti-obesity activity (in words): general statement, no dose given
Description: (i) The compounds and a comparison compound (salbutamol) were dosed daily in water or carboxymethylcellulose suspension to genetically obese mice by oral gavage for 28 days. At the end of that time the carcass composition was determined.

blood glucose = assay: hypoglycaemic activity: reduction in area under blood glucose curve after glucose load in fasted mice; assay type: in vivo, female CFLP mice; conditions: for inhibition in vivo at 5 mg/kg / inhibition in vivo at 20 mg/kg: Mus musculus, po, 2 h, 30 min before glucose load 1 g/kg sc, 2 hour period, versus control mice; for inhibition in vivo at 5 mg/kg: 5 mg/kg po; for inhibition in vivo at 20 mg/kg: 20 mg/kg po; for anti-hyperglycaemic activity (in words): general statement, no dose given
Description: Female CFLP mice, weighing approximately 25 g, were fasted for 24 hours prior to the study. The compounds under study were dosed orally (20 mg and 5 mg/kg) to each of 8 mice. 30 minutes later a blood sample ([…]) was obtained from the tail for the analysis of blood glucose. Immediately after taking this blood sample, each mouse was given a glucose load (1 g/kg body weight sub-cutaneously). Blood samples were then obtained from each mouse at 30 minute intervals for 120 minutes.
Compounds that produced a significant (P<0.05) reduction of blood glucose, compared with control mice given water, at any time interval were considered active. The area under the blood glucose curve over the 2 hour period after giving the glucose load was calculated for each compound and compared with the value for control animals. Thus a compound would give a 100% reduction in the area under the blood glucose curve if the blood glucose was maintained at the same level as in untreated fasted animals. Reduction in the glucose curve of more than 100% indicate that a compound, in spite of being given a glucose load, maintained blood glucose levels below that found in control fasted mice.

Row | SMILES | inhibition in vivo at 5 mg/kg (blood glucose) | anti-hyperglycaemic activity (in words) (blood glucose) | also measured
1 | COC(=O)c1ccc(OCC(C)NCC(O)c2ccc(O)c(CO)c2)cc1 (stereo not shown) [Example 8, N-[2-(4-Carbomethoxyphenoxy)-1-methylethyl]-2-hydroxy-2-(4-hydroxy-3-hydroxymethylphenyl)ethanamine] | – | – | g - lipid per mouse, Treated (genetically obese mice; 21 mg/kg po, daily for 28 days, control 21.9 ± 0.5): 19.6 ± 0.4 g
2 | COC(=O)c1ccc(CC(C)NCC(O)c2ccc(O)c(CO)c2)c(F)c1 (stereo not shown) [Example 9, N-[2-(4-Carbomethoxy-2-fluorophenyl)-1-methylethyl]-2-hydroxy-2-(4-hydroxy-3-hydroxymethylphenyl) ethanamine] | 47% | – | –
3 | COC(=O)c1ccc(CC(C)NCC(O)c2ccc(O)c(CO)c2)cc1OC (stereo not shown) [Example 10, N-[2-(4-Carbomethoxy-3-methoxyphenyl)-1-methylethyl]-2-hydroxy-2-(4-hydroxy-3-hydroxymethylphenyl)ethanamine] | – | – | anti-obesity activity (in words) (genetically obese mice): particularly worthy of mention in view of their anti-obesity activity
4 | CC(Cc1ccc(C(=O)OC(C)C)cc1)NCC(O)c1ccc(O)c(CO)c1 (stereo not shown) [Example 13, N-[2-(4-Carboisopropoxyphenyl)-1-methylethyl]-2-hydroxy-2-(4-hydroxy-3-hydroxymethylphenyl)ethanamine] | – | – | anti-obesity activity (in words) (genetically obese mice): particularly worthy of mention in view of their anti-obesity activity
5 | COC(=O)c1ccc(C(C)NCC(O)c2ccc(O)c(CO)c2)cc1 (stereo not shown) [Example 18] | – | – | inhibition in vivo at 20 mg/kg (blood glucose): 25%
6 | COC(=O)c1ccc(CC(C)NCC(O)c2ccc(O)c(O)c2)cc1 (stereo not shown) [Example 19, N-(2-[4-Carbomethoxyphenyl]-1-methylethyl)-2-(3,4-dihydroxyphenyl)-2-hydroxyethanamine] | – | particularly worthy of mention in view of their anti-hyperglycaemic activity | –
7 | COC(=O)c1ccc(CCNCC(O)c2ccccc2)cc1 (stereo not shown) [Example 25, N-(2-[4-Carbomethoxyphenyl]ethyl)-2-hydroxy-2-phenylethanamine] | 179% | particularly worthy of mention in view of their anti-hyperglycaemic activity | –
8 | COC(=O)c1ccc(CCNCC(O)c2ccccc2Cl)cc1 (stereo not shown) [Example 27, N-(2-[4-Carbomethoxyphenyl]ethyl)-2-(2-chlorophyenyl)-2-hydroxyethanamine] | 38% | – | –
9 | COC(=O)c1ccc(CC(C)(C)NCC(O)c2ccc(O)c(CO)c2)cc1 (stereo not shown) [Example 31, N-(2-[4-Carbomethoxyphenyl]-1,1-dimethylethyl)-2-hydroxy-2-(4-hydroxy-3-hydroxymethylphenyl) ethanamine] | 139% | particularly worthy of mention in view of their anti-hyperglycaemic activity | –
10 | COC(=O)c1ccc(CC(C)NCC(O)c2ccc(O)cc2Cl)cc1 (stereo not shown) [Example 33, N-(2-[4-Carbomethoxyphenyl]-1-methylethyl)-2-(2-chloro-4-hydroxyphenyl)-2-hydroxyethanamine] | 88% | particularly worthy of mention in view of their anti-hyperglycaemic activity | –
11 | COC(=O)c1ccc(CC(C)NCC(O)c2ccc(O)c(N)c2)cc1 (stereo not shown) [Example 34] | – | – | inhibition in vivo at 20 mg/kg (blood glucose): 61%
12 | COC(=O)c1ccc(C[C@H](C)NCC(O)c2ccc(O)c(CO)c2)cc1 (stereo partly drawn) [Example 36, N-(1-(S)-2-[4-Carbomethoxyphenyl]-1-methylethyl)-2-hydroxy-2-(4-hydroxy-3-hydroxymethylphenyl)ethanamine] | 79% | particularly worthy of mention in view of their anti-hyperglycaemic activity | –
13 | COC(=O)c1ccc(CC(C)NCC(O)c2ccc(O)c(NC(C)=O)c2)cc1 (stereo not shown) [Example 38, N-(2-[4-Carbomethoxyphenyl]-1-methylethyl)-2-(3-acetamido-4-hydroxyphenyl)-2-hydroxyethanamine] | 59% | – | –
14 | COC(=O)c1ccc(CC(C)NCC(O)c2ccc(O)c(CS(C)(=O)=O)c2)cc1 (stereo not shown) [Example 39, N-(2-[4-Carbomethoxyphenyl]-1-methylethyl)-2-(4-hydroxy-3-methylsulphonylmethylphenyl)-2-hydroxyethanamine] | 83% | particularly worthy of mention in view of their anti-hyperglycaemic activity | –
